Where only a bound is given, the exact number is not on record here.

What all share (assay type): cell-based, human
For assay [1], the system named is Ca^2+ influx in MCF-7 cells. As to the kind of experiment: Ca2+ influx (Mn2+ entry rate, fura-2 quench). To be noted: for Increase of Ca^2+ influx (Ca^2+ entry rates): compound 4: 6.25 μM, compound 5: 12.5 μM; for Ca^2+ influx, in words: 25 μM. As for the experimental part:
(§1) To evaluate Ca^2+ influx from the extracellular space, the Mn^2+ entry rate, as a reporter of Ca^2+ influx, was measured. The images were recorded at excitation of 360 nm (the fura-2 isosbestic point) and 2 mM of extracellular Mn^2+. The rates of Ca^2+ entry were estimated from the slope of the liner portion of curves of the fura-2 fluorescence quench by Mn^2+. To evaluate Ca^2+ release from the intracellular stores, cells grown on coverslips were placed in D-PBS, and the mobilizer of the endoplasmic reticulum Ca^2+-stores, thapsigargin (1 μM), was added after recording the basal [Ca^2+]i. The peak values of the [Ca^2+]i increase, indicating the filling level of the Ca^2+-stores, were measured with fura-2.
(§2) To investigate mechanism of a sustained increase in [Ca^2+]i after treatment with PMFs, the rates of the background Ca^2+ influx from the extracellular space and the magnitudes of Ca^2+ release from the endoplasmic reticulum stores with thapsigargin were measured in the treated cells using methods described above.
(§3) In FIG. 11A through 11D, the concentration for each PMF was as follows: compound 4: 6.25 μM; compound 5: 12.5 μM; compound 6: 25 μM; and compound 7: 25 μM. […] The Ca^2+ entry rates (C, D) are presented as tangents of the linear portions of the fura-2 quench curves. Data in panel C are presented as means±SE for control cells or cells treated with PMFs 3 days (black bars) or 6 days (gray bars). […] Mn^2+ or thapsigargin was added after recording the basal level of fluorescence or basal [Ca^2+]i for 30-60 s.

Assay [2] concerns calpain. As to the kind of experiment: Calpain activity assay (fluorogenic substrate, immunofluorescence). To be noted: MCF-7 cells; for Calpain activation, in words: day 3 or 6, FIG. 12A, 13A,B. As for the experimental part: (§4) Calpain and caspase-12 activities were measured with the cell-permeable fluorogenic peptide substrates t-Boc-Leu-Met-CMAC (50 μM; CMAC, 7-amino-4-chloromethyl coumarin; Molecular Probes) and Ala-Thr-Ala-Asp-AFC (50 μM; AFC, 7-amino-4-trifluoromethyl coumarin; Caspase-12 Fluorometric Assay Kit, BioVision), respectively. See, e.g., Roser and Gores (2000) Meth. Mol. Biol. 144:2452-2466. Polyclonal antibodies directed against caspase-12 (BioVision) and monoclonal antibodies directed against the calpain small (cleaved) subunit (Chemicon) were used to evaluate activation of these proteases. For immunofluorescence labeling, the fixed and permeabilized cell preparations were pre-incubated with non-specific serum for 20 min, incubated for 1 h at 37° C. or overnight at 4° C. with the primary antibodies and 1 h at room temperature with secondary antibodies using ALEXA FLUOR-488 signal-amplification mouse antibodies (Molecular Probes) and FITC- or Texas Red-conjugated anti-rabbit and anti-mouse IgG (Molecular Probes). Fluorescence microscopy was carried out as described above for Ca^2+ imaging. Image analysis and measurement of fluorescence intensity was performed using MetaMorph 6.3 software (Molecular Devices/Universal Imaging), as described previously in Sergeev (1996) Endocrine 5: 335-340.

In assay [3] the test system is [Ca^2+]i in MCF-7 cells. As to the kind of experiment: Intracellular calcium measurement (fluo-3). To be noted: for Basal level of [Ca^2+]i, in words: fluo-3/AM, day 3 and 6, dose-dependent; for Intracellular Ca^2+ levels, in words: 50-100 μM, day 6. How it is done:
Concentration of intracellular free Ca^2+ ([Ca^2+]i) was measured with Ca^2+ indicators fura-2 and fluo-3, as described in detail previously, for example, in Sergeev (2004) J. Steroid Biochem. Mol. Biol. 89-90:419-425. For [Ca^2+]i measurements with fluo-3, cells grown in the 96-well, black-wall plates were loaded with 2 μM of fluo-3/AM (Molecular Probes) in Dulbecco's PBS (D-PBS) supplemented with 0.1% DMSO for 40 min at 37° C. Fluorescence (485 nm excitation, 530 nm emission) was measured in the FLx800 plate reader, as described above. For [Ca^2+]i measurements with fura-2, cells grown on coverslips were loaded with 1 μM of fura-2/AM (Molecular Probes) in D-PBS supplemented with 0.1% DMSO and 0.01% Pluronic F-127 for 40 min at 37° C. The dynamics of intracellular Ca^2+ was assessed with cells in the microincubation chamber (37.0±0.2° C.) on a NIKON ECLIPSE TE-300 inverted microscope equipped for epifluorescence, ratiometric, digital imaging. The images were captured using SUPERFLUOR 40× 1.3 NA oil-immersion objective (Nikon) and COOLSNAPFX digital CCD camera (Photometrics), ratioed (340/380 nm excitation, 510 nm emission) on a pixel-by-pixel basis, and stored for analysis. Image analysis was performed using METAFLUOR 6.3 software (Molecular Devices/Universal Imaging).

Assay [4] concerns MCF-7 breast cancer cells. The assay can be described thus: Apoptosis assay (Annexin V, Hoechst 33342). To be noted: MCF-7 cells; for Apoptosis by morphological criteria (nuclear fragmentation): Hoechst 33342. How it is done: (§5) MCF-7 cells were maintained and assayed as described in Section 8.4 above. Apoptosis was evaluated by the plasma membrane and nuclear changes as previously described in Sergeev (2004) J. Steroid Biochem. Mol. Biol. 89-90:419-425. Briefly, An Annexin V assay (ALEXA FLUOR 488 Annexin V Assay Kit; Molecular Probes) was used for detection of the apoptotic plasma membrane (loss of membrane asymmetry due to phosphatidylserine translocation). Fluorescence (485 nm excitation, 530 nm emission) of the Annexin V-abeled cells grown in 96-well plates was measured in the FLx800 plate reader with KC software (BioTek) and expressed in fluorescence units per 1×10^3 cells. Propidium iodide uptake was used to evaluate non-apoptotic and apoptotic cell death (the dye permeates plasma membrane and stain nucleic acids of both necrotic and the late apoptotic cells). Fluorescence (530 nm excitation, 620 nm emission) of the propidium iodide-labeled cells was also measured in the FLx800 reader. Additionally, HOECHST 33342 and ALEXA FLUOR 488 Annexin V were employed to visualize apoptotic nuclei (nuclear fragmentation) and the apoptotic plasma membrane, respectively. Fluorescence microscopy of HOECHST 33342- and Annexin V-labeled cells was performed as described below for the cellular Ca^2+ and immunofluorescence imaging.

Assay [5] deals with caspase-12. The assay can be described thus: Caspase-12 activity assay (fluorogenic substrate, immunofluorescence). To be noted: MCF-7 cells, day 3 or 6, FIG. 12B, 13C,D. How it is done:
as §4

Assay [6] relates to intracellular Ca^2+ stores in MCF-7 cells. As to the kind of experiment: Ca2+ mobilization from endoplasmic reticulum stores with thapsigargin (fura-2). To be noted: for Decrease of the Ca^2+ mobilization response: compound 4: 6.25 μM, compound 5: 12.5 μM; for Filling of the endoplasmic reticulum Ca^2+ stores, in words: 25 μM. As for the experimental part: as §1, §2, §3
For assay [7], the system named is MCF-7 breast cancer cells. The assay can be described thus: Cell death by propidium iodide uptake. To be noted: MCF-7 cells; for Cell death (propidium iodide), in words: evident at day 6, FIG. 9. How it is done:
as §5

Setting [8] is: day 3 and 6 of treatment, dose-dependent.

`COc1ccc(-c2cc(=O)c3c(OC)c(OC)c(OC)cc3o2)cc1O` [Compound 5, 3′-hydroxy-5,6,7,4′-tetramethoxyflavone]: the “Increase of Ca^2+ influx (Ca^2+ entry rates)” value in assay [1] is on record as 1.6 fold. Moreover, the “Calpain activation, in words” value in assay [2] is recorded as “activation”. Besides, in assay [3], the “Increase in [Ca^2+]i (ECmin, apparent minimal effective concentration)” value (shortened to “Increase in [Ca^2+]i”) was determined as 3.125 µM and the “Basal level of [Ca^2+]i, in words” value was “induced an increase in the basal level of [Ca^2+]i”. In addition, in assay [4], the “Induction of cell apoptosis (ECmin, apparent minimal effective concentration)” value (shortened to “Induction of cell apoptosis”) stood at 3.125 µM and the “Apoptosis by morphological criteria (nuclear fragmentation)” value (from here on “Apoptosis by morphological criteria”) is recorded as “confirmed apoptosis”. Also, in assay [4] (setting [8]), the “Induction of apoptosis (Annexin V), in words” value (“Induction of apoptosis” below) is listed as “induced apoptosis”. In addition, in assay [5], the “Caspase-12 activation, in words” value is recorded as “activation”. Further, the “Decrease of the Ca^2+ mobilization response” value in assay [6] is 1.35 fold. Also, in assay [7], the “Induction of cell death (ECmin, apparent minimal effective concentration)” value (from here on “Induction of cell death”) was found to be 6.25 µM and the “Cell death (propidium iodide), in words” value is recorded as “induced death of MCF-7 breast cancer cells”.
As for `COc1ccc(-c2cc(=O)c3c(OC)c(OC)c(OC)cc3o2)cc1OC` [Compound 7, 5,6,7,3′,4′-pentamethoxyflavone, reference compound], the “Ca^2+ influx, in words” value in assay [1] was “did not significantly increase Ca^2+ influx”. In addition, the “Calpain activation, in words” value in assay [2] is “No significant calpain and caspase-12 activation”. In assay [3], the “Increase in [Ca^2+]i” value was greater than 50 µM and the “Intracellular Ca^2+ levels, in words” value is listed as “only a trend in increasing intracellular Ca^2+ levels”. The “Induction of cell apoptosis” value in assay [4] is greater than 50 µM. In addition, in assay [4] (50-100 μM, day 6 of treatment), the “Induction of apoptosis” value is on record as “only a trend in inducing apoptosis”. For the same compound, in assay [5], the “Caspase-12 activation, in words” value is “No significant calpain and caspase-12 activation”. For the same compound, in assay [6], the “Filling of the endoplasmic reticulum Ca^2+ stores, in words” value is reported as “did not affect the filling of the endoplasmic reticulum Ca^2+ stores”. For the same compound, in assay [7], the “Induction of cell death” value is greater than 50 µM and the “Cell death (propidium iodide), in words” value is reported as “not effective in inducing non-apoptotic cell death”.
On to `COc1ccc(-c2oc3c(OC)c(OC)c(OC)c(O)c3c(=O)c2OC)cc1OC` [Compound C, 5-hydroxy-3,6,7,8,3′,4′-hexamethoxyflavone], for which the “Increase of Ca^2+ influx (Ca^2+ entry rates)” value in assay [1] was 1.8 fold. Also, the “Calpain activation, in words” value in assay [2] is reported as “activation”. For the same compound, in assay [3], the “Increase in [Ca^2+]i” value was determined as 1.56 µM and the “Basal level of [Ca^2+]i, in words” value was “induced an increase in the basal level of [Ca^2+]i”. In assay [4], the “Induction of cell apoptosis” value was determined as 1.56 µM and the “Apoptosis by morphological criteria” value is given as “confirmed apoptosis”. In assay [4] (setting [8]), the “Induction of apoptosis” value is given as “induced apoptosis”. Moreover, the “Caspase-12 activation, in words” value in assay [5] is recorded as “activation”. Also, in assay [6], the “Decrease of the Ca^2+ mobilization response” value was 1.5 fold. Besides, in assay [7], the “Induction of cell death” value amounted to 3.125 µM and the “Cell death (propidium iodide), in words” value is recorded as “induced death of MCF-7 breast cancer cells”.
For the compound `COc1ccc(-c2oc3c(OC)c(OC)c(OC)c(OC)c3c(=O)c2OC)cc1OC` [D, 3,5,6,7,8,3,4-heptamethoxyflavone, reference compound], in assay [1], the “Ca^2+ influx, in words” value is “did not significantly increase Ca^2+ influx”. For the same compound, in assay [2] (day 3 of treatment), the “Number of cells with activated calpain, in words” value is reported as “a trend in increasing the number of cells with activated calpain”. Also, the “Calpain activation, in words” value in assay [2] was “No significant calpain and caspase-12 activation”. For the same compound, in assay [3], the “Increase in [Ca^2+]i” value is greater than 50 µM and the “Intracellular Ca^2+ levels, in words” value is on record as “only a trend in increasing intracellular Ca^2+ levels”. For the same compound, in assay [4], the “Induction of cell apoptosis” value is greater than 50 µM and the “Apoptosis by morphological criteria” value is on record as “confirmed apoptosis”. Moreover, the “Proapoptotic activity (Annexin V), in words” value in assay [4] (25-100 μM, day 6 of treatment) was “low proapototic activity”. The “Caspase-12 activation, in words” value in assay [5] is “No significant calpain and caspase-12 activation”. Further, the “Filling of the endoplasmic reticulum Ca^2+ stores, in words” value in assay [6] was “did not affect the filling of the endoplasmic reticulum Ca^2+ stores”. Also, in assay [7], the “Induction of cell death” value is greater than 50 µM and the “Cell death (propidium iodide), in words” value was “not effective in inducing non-apoptotic cell death”.

These data come from patent US20140039044A1, “Hydroxylated Polymethoxyflavone Compositions” (WLLGEN, INC., priority 2006, published 2014).
